Like-named read-outs stand apart in the source and are kept apart here.
How the values were obtained:
[1] = target: T1, BACE1 (Homo sapiens, UniProt P56817); experiment: SH-SY5YAPP695Wt Whole Cell Assay (Abeta ELISA); assay type: cell-based; settings: SH-SY5YAPP695Wt cells, 24 hours
T1 construct: endogenous in cells; host or cells: SH-SY5Y (ATCC CRL2266) stably expressing human APP695Wt
Method: (§1) To assess BACE1 selectivity over BACE2, the test compound is evaluated in FRET-based enzymatic assays using specific substrates for BACE1 and BACE2 as described below. For in vitro enzymatic and cellular assays, the test compound is prepared in DMSO to make up a 10 mM stock solution. The stock solution is serially diluted in DMSO to obtain a ten-point dilution curve with final compound concentrations ranging from 10 μM to 0.05 nM in a 96-well round-bottom plate before conducting the in vitro enzymatic and whole cell assays.
The routine whole cell assay for the measurement of inhibition of BACE1 activity utilizes the human neuroblastoma cell line SH-SY5Y (ATCC Accession No. CRL2266) stably expressing a human APP695Wt cDNA. Cells are routinely used up to passage number 6 and then discarded.
SH-SY5YAPP695Wt cells are plated in 96 well tissue culture plates at 5.0×10^4 cells/well in 200 μL culture media (50% MEM/EBSS and Ham's F12, 1× each sodium pyruvate, non-essential amino acids and Na bicarbonate containing 10% FBS). The following day, media is removed from the cells, fresh media added then incubated at 37° C. for 24 hours in the presence/absence of test compound at the desired concentration range.
At the end of the incubation, conditioned media are analyzed for evidence of beta-secretase activity by analysis of Abeta peptides 1-40 and 1-42 by specific sandwich ELISAs. […]

[2] = target: T2, human BACE1(1-460):Fc (Homo sapiens, UniProt P56817); experiment: BACE1 FRET Assay; assay type: biochemical; settings: purified recombinant huBACE1:Fc, n=6, mean±SEM
T2 construct: made in house; host or cells: HEK293 (transient, secreted into conditioned media, Protein A purified)
T2 sequence (P56817 22-460): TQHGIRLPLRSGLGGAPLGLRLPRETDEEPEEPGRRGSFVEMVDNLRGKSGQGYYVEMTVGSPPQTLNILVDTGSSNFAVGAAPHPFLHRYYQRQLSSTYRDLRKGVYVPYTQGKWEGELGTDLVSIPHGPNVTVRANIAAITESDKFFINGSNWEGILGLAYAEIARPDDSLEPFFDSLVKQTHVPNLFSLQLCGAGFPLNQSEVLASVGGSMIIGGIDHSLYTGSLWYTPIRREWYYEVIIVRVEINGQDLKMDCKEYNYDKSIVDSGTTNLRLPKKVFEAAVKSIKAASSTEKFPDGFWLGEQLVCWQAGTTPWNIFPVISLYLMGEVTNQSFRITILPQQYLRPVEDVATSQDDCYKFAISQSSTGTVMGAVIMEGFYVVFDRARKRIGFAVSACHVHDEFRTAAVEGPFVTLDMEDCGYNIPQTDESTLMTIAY
Method: as §1
Human BACE1 (accession number: AF190725) and human BACE2 (accession number: AF 204944) are cloned from total brain cDNA by RT-PCR. The nucleotide sequences corresponding to amino acid sequences #1 to 460 are inserted into the cDNA encoding human IgG1 (Fc) polypeptide (Vassar et al., Science, 286, 735-742 (1999)). […]
(§2) Conditioned media of HEK293 cell transiently transfected with huBACE1:Fc or huBACE2:Fc cDNA are collected. […] The purity of final product is assessed by electrophoresis in 4-20% Tris-Glycine SDS-PAGE. […]
Serial dilutions of the test compounds are prepared as described above. […] The RFU of the mixture at time 0 is recorded at excitation wavelength 355 nm and emission wavelength 460 nm, after brief mixing on a plate shaker. […] The RFU at the end of incubation is recorded with the same excitation and emission settings used at time 0. […]

[3] = target: T3, beta-secretase (Mus musculus, UniProt P56818); experiment: In Vivo Inhibition of Beta-Secretase (brain Abeta 1-x, PDAPP mice); settings: young female PDAPP mice, three hours, vs vehicle; for Abeta 1-x peptide levels reduced in brain cortex: p<0.01
T3 construct: from tissue; host or cells: brain (hippocampus, cortex) of young female PDAPP mice, in vivo
T3 sequence (P56818 46-501): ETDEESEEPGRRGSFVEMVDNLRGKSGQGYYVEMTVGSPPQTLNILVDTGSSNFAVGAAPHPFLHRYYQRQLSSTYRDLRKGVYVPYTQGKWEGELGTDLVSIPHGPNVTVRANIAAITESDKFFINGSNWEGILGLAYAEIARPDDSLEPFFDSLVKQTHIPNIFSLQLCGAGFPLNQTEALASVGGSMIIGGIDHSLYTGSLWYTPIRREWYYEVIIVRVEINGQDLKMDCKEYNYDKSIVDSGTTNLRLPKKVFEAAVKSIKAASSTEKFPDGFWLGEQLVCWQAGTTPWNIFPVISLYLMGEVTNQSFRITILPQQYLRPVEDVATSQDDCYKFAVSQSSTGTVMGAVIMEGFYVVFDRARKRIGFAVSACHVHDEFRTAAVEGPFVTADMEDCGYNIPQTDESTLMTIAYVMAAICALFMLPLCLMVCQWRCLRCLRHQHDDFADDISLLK
Excerpt: Several animal models, including mouse, guinea pig, dog, and monkey, may be used to screen for inhibition of beta-secretase activity in vivo following compound treatment. Animals used in this invention can be wild type, transgenic, or gene knockout animals. For example, the PDAPP mouse model, prepared as described in Games et al., Nature 373, 523-527 (1995), and other non-transgenic or gene knockout animals are useful to analyze in vivo inhibition of Abeta and sAPPbeta production in the presence of inhibitory compounds. Generally, 2 month old PDAPP mice, gene knockout mice or non-transgenic animals are administered compound formulated in vehicles, such as corn oil, beta-cyclodextran, phosphate buffers, PHARMASOLVE®, or other suitable vehicles via oral, subcutaneous, intra-venous, feeding, or other route of administration. One to twenty-four hours following the administration of compound, animals are sacrificed, and brains are removed for analysis of Abeta 1-x. “Abeta 1-x” as used herein refers to the sum of Abeta species that begin with residue 1 and end with a C-terminus greater than residue 28. This detects the majority of Abeta species and is often called “total Abeta”. Total Abeta peptides (Abeta 1-x) levels are measured by a sandwich ELISA, using monoclonal 266 as a capture antibody and biotinylated 3D6 as reporting antibody. (See May, et al., Journal of Neuroscience, 31, 16507-16516 (2011)).
For acute studies, compound or appropriate vehicle is administered and animals are sacrificed at about 3 hours after dosing. Brain tissue, is obtained from selected animals and analyzed for the presence of Abeta 1-x. After chronic dosing brain tissues of older APP transgenic animals may also be analyzed for the amount of beta-amyloid plaques following compound treatment.
For Example 1, three hours following a 3, 10, and 30 mg/kg oral dose of the compound to young female PDAPP mice, Abeta 1-x peptide levels are reduced approximately 22%, 42%, and 51% in brain hippocampus and 26%, 43%, and 59% in brain cortex p<0.01, compared to vehicle-treated mice.

[4] = target: T4, human BACE2 (1-460):Fc (Homo sapiens, UniProt Q9Y5Z0); experiment: BACE2 TMEM27 FRET Assay; assay type: biochemical
T4 construct: made in house; host or cells: HEK293 (transient, secreted into conditioned media, Protein A purified)
T4 sequence (Q9Y5Z0 21-460): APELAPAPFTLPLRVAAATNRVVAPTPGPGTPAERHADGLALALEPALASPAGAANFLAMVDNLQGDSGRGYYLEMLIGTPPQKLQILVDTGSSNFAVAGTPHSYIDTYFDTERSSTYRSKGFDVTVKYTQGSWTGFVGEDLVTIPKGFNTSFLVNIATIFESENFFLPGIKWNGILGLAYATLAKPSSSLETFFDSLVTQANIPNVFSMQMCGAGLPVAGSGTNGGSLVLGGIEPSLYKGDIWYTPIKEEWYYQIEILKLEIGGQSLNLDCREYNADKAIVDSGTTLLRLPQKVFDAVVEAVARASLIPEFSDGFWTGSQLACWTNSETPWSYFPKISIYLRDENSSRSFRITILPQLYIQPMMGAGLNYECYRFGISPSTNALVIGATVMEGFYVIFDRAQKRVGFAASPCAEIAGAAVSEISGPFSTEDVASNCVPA
Method: as §1
Human BACE1 (accession number: AF190725) and human BACE2 (accession number: AF 204944) are cloned from total brain cDNA by RT-PCR. […]
as §2
Transmembrane protein 27 (TMEM27) (Accession Number NM_020665), also known as Collectrin) is a recently described substrate for BACE2, but not BACE1 (Esterhazy, et al, Cell Metabolism, 14, 365-377 (2011)). […] The RFU of the mixture at time 0 is recorded at excitation wavelength 430 nm and emission wavelength 535 nm. […] The RFU at the end of incubation is recorded with the same excitation and emission settings used at time 0. […]

T1 sequence (P56817 46-501): as the sequence (P56818 46-501) above, with S6P, I162V, I165L, T180S, A182V, V340I, A393L, H443Q counted along it

IC50 ([1]; n=3, mean±SEM, read-out: IC50 SH-SY5YAPP695Wt A-beta (1-42) ELISA): 430 ± 80 pM | IC50 ([1]; n=4, mean±SEM, read-out: IC50 SH-SY5YAPP695Wt A-beta (1-40) ELISA): 380 ± 140 pM | IC50 [2]: 955 ± 93 pM | Abeta 1-x peptide levels reduced in brain hippocampus ([3]; 3 mg/kg oral): approximately 22% | Abeta 1-x peptide levels reduced in brain cortex ([3]; 3 mg/kg oral): ~26% | Abeta 1-x peptide levels reduced in brain hippocampus ([3]; 10 mg/kg oral): ~42% | Abeta 1-x peptide levels reduced in brain cortex ([3]; 10 mg/kg oral): ~43% | Abeta 1-x peptide levels reduced in brain hippocampus ([3]; 30 mg/kg oral): ~51% | Abeta 1-x peptide levels reduced in brain cortex ([3]; 30 mg/kg oral): ~59% | IC50 ([4]; huBACE2:Fc, TMEM27 FRET substrate, n=4, mean±SEM): 87300 ± 11100 pM | ratio of BACE2 IC50 (TMEM27 FRET) to BACE1 IC50 (FRET) ([4]; selectivity for BACE1 over BACE2): about 91 fold
Structure (SMILES): NC1=N[C@@]2(c3cc(NC(=O)c4cnc(-n5cncn5)cn4)ccc3F)C[C@@H](OC3CC3)C[C@H]2CS1 [Example 1, N-[3-[(4aR,6S,7aS)-2-Amino-6-(cyclopropoxy)-4a,5,6,7-tetrahydro-4H-cyclopenta[d][1,3]thiazin-7a-yl]-4-fluoro-phenyl]-5-(1,2,4-triazol-1-yl)pyrazine-2-carboxamide]

Source: patent publication US9938266B2, “Selective BACE1 inhibitors” (Eli Lilly and Company, priority 2015, dated 2018)
